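Cultured in 96-well plates, cells were exposed to test compound for 48 hours across five concentrations. Here, GI50 denotes the concentration required for 50% inhibition of growth. Definition used: TGI = concentration required for complete inhibition of growth.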
Experiments:
Experiment in all cases: NCI-60 cell line screen, 48 h
[1] = system: SK-MEL-2 melanoma
[2] = system: SF-295 CNS
[3] = system: NCI-H522 lung
[4] = system: HCT-116 colon
[5] = system: IGROV1 ovarian
[6] = system: SR leukemia
[7] = system: OVCAR-3 ovarian
[8] = system: ACHN renal
[9] = system: MDA-MB-231 breast
[10] = system: NCI-H23 lung

SMILES | GI50 [1] | TGI [1] | GI50 [2] | TGI [2] | GI50 [3] | TGI [3] | GI50 [4] | TGI [4] | GI50 [5] | TGI [5] | GI50 [6] | TGI [6] | GI50 [7] | TGI [7] | GI50 [8] | TGI [8] | GI50 [9] | TGI [9] | GI50 [10] | TGI [10]
Cc1noc(C)c1-c1cnc2c(-c3ccc(C(=O)O)cc3)cn([C@@H](C)c3ccccn3)c2c1 | 7.02 µM | > 100 µM | 3.71 µM | > 100 µM | 0.231 µM | > 49.7 µM | 1.14 µM | > 100 µM | 0.607 µM | > 100 µM | 0.838 µM | > 100 µM | 0.959 µM | 32.1 µM | 1.38 µM | > 100 µM | 0.518 µM | > 100 µM | 3.32 µM | > 100 µM
Oc1c(O)c(Cl)c(Cl)c(Cl)c1Cl | 4.1 µM | 15.2 µM | 3.23 µM | 12.7 µM | 1.65 µM | 4.54 µM | 2.88 µM | 8.75 µM | 3.06 µM | 10.4 µM | 2.73 µM | > 100 µM | 2.44 µM | 14.4 µM | 5.15 µM | 35.5 µM | 5.1 µM | 38.5 µM | 3.04 µM | 9.28 µM
COc1cc(NC(C)CCCNC(C)C)c2ncccc2c1OC (stereo not given) | – | – | > 100 µM | > 100 µM | – | – | 27.8 µM | > 100 µM | 13.4 µM | 44.3 µM | 70.8 µM | > 100 µM | 6.47 µM | 51 µM | > 100 µM | > 100 µM | > 100 µM | > 100 µM | > 100 µM | > 100 µM
CCN(CC)c1nc(NC2CCCCC2)c2nc(N(CC)CC)nc(NC3CCCCC3)c2n1 | – | – | – | > 100 µM | – | – | – | > 100 µM | – | > 100 µM | – | > 100 µM | – | > 100 µM | – | > 100 µM | – | > 100 µM | – | > 100 µM
O=C(O)Cn1ccc2ccccc21 | > 100 µM | > 100 µM | > 100 µM | > 100 µM | > 100 µM | > 100 µM | > 100 µM | > 100 µM | 72.7 µM | > 100 µM | – | – | > 100 µM | > 100 µM | > 100 µM | > 100 µM | > 100 µM | > 100 µM | > 100 µM | > 100 µM
Nc1ccccc1C(=O)NC(=O)Nc1ccc(Oc2ncc(Br)cn2)c(Cl)c1 | – | 5.65 µM | – | 0.127 µM | – | – | – | 12.1 µM | – | 7.83 µM | – | 1.5 µM | – | – | – | 30.8 µM | – | 2.76 µM | – | 4.86 µM
S=C(CSc1ccccc1)Nc1cccc2ccccc12 | – | 74.5 µM | – | 97.1 µM | – | > 100 µM | – | > 100 µM | – | > 100 µM | – | 68.8 µM | – | 88.7 µM | – | > 100 µM | – | > 100 µM | – | > 100 µM
CCOc1ccc(C(C)=O)cc1NC(=O)c1cccc(-c2nnn(CC)n2)c1 | 0.44 µM | 24 µM | 0.306 µM | 5.74 µM | 0.147 µM | 0.971 µM | 0.419 µM | > 100 µM | 5.7 µM | > 100 µM | 0.401 µM | > 100 µM | 0.377 µM | 5.89 µM | 0.748 µM | 70.3 µM | 1.62 µM | 58.5 µM | 0.646 µM | 19 µM
C=C(CN1c2ccccc2Sc2ccccc21)c1ccc(C(=O)Nc2ccccc2N)cc1 | > 100 µM | > 100 µM | > 38.3 µM | > 100 µM | 1.63 µM | > 100 µM | 11.1 µM | > 100 µM | 28.1 µM | > 100 µM | 2.32 µM | > 59.5 µM | 8.08 µM | > 100 µM | > 71.7 µM | > 100 µM | 20.3 µM | > 79.4 µM | > 100 µM | > 100 µM
Cc1c(C)c2c(c(C)c1OCC(=O)O)CC[C@@](C)(CCC[C@@H](C)CCC[C@@H](C)CCCC(C)C)O2 | 64.4 µM | 142 µM | 60.1 µM | 146 µM | 64.1 µM | 154 µM | 33.2 µM | 108 µM | 91.7 µM | 187 µM | 50.4 µM | 500 µM | 77.3 µM | 154 µM | 53.1 µM | 112 µM | 95.2 µM | 218 µM | 75.7 µM | 200 µM
O=C(Oc1ccccc1)C(Br)C(Br)c1ccccc1 (stereo not given) | 16.1 µM | 33.1 µM | 4.88 µM | 18.3 µM | 1.69 µM | 3.39 µM | 1.8 µM | 3.54 µM | 2 µM | 3.96 µM | 1.93 µM | 5.5 µM | 1.72 µM | 3.14 µM | 2.06 µM | 3.79 µM | 14.4 µM | 29.6 µM | 7.2 µM | 24.3 µM
O=C(/C=C\n1cnc(-c2cc(C(F)(F)F)cc(C(F)(F)F)c2)n1)N1CC(F)(F)C1 | 0.154 µM | 1.58 µM | 0.336 µM | > 17 µM | 0.423 µM | 4.47 µM | 0.4 µM | 4.45 µM | 0.978 µM | 8.59 µM | 0.151 µM | > 25 µM | 0.332 µM | 3.03 µM | 1.3 µM | > 25 µM | 0.305 µM | 4.52 µM | 0.391 µM | 5.61 µM
Cn1cc(C2=C(c3ccccc3C(F)(F)F)C(=O)NC2=O)c2ccccc21 | 8.11 µM | > 24 µM | 4.33 µM | > 17.2 µM | 11.6 µM | > 25 µM | 6.59 µM | > 25 µM | 13.2 µM | > 25 µM | 6.36 µM | > 22.2 µM | 7.8 µM | 24.8 µM | 8.06 µM | > 25 µM | 17.4 µM | > 25 µM | 11.9 µM | > 25 µM
COc1ccc2[nH]c(C(=O)OCc3ccc4cccc(O)c4n3)cc2c1 | 1.74 µM | 3.72 µM | 4.98 µM | 18.1 µM | 1.39 µM | 3.25 µM | 0.39 µM | 1.85 µM | 0.751 µM | 2.08 µM | 0.251 µM | 1.25 µM | 1.11 µM | 2.41 µM | 0.69 µM | 1.98 µM | 1.17 µM | 2.49 µM | 1.44 µM | 3.07 µM

— PubChem BioAssay (NCI)
